The values that follow come from patent publication US5538971A, “Benzoquinoxalines, pharmaceutical compositions containing them and their use in treating schizophrenia” (Sandoz Ltd., priority 1991, dated 1996).

SMILES strings stand for the structures. Read-outs that look alike come from different tables or passages of the source.

One data set concerns mouse. The experiment in a line: apomorphine induced rearing test. In kind it is in vivo. Here is the method:
Thus when administered to the mouse at doses of ca. 0.05 to ca. 1 mg/kg p.o., there is observed a significant inhibition of the rearing induced by subcutaneous administration of 0.5 mg/kg of apomorphine. In this test, each mouse is contained in a glass cylinder (20 cm high, 8 cm diameter) on absorbent cardboard and rearing is quantified by accumulating the time spent with both forepaws off the ground during three 1-minute periods at 10 minute intervals after apomorphine administration. […] This test detects both classical and atypical anti-psychotics and thus has predictive value for efficacy in schizophrenia.

The test system of data set [1] is rat. In words: inhibition of locomotor activity increase induced by a D-1 agonist. The format is in vivo. The conditions noted are these: for inhibition of locomotor activity increase (in words): rat, D-1 agonist 10 mg/kg p.o., for the invention's compounds doses of ca. 0.1 to 10 mg/kg p.o. or ca. 0.1 to 0.5 mg/kg s.c. Here is the method:
In this test, the substance to be tested is applied one hour before the D-1 agonist, and the locomotor activity is measured under red light using photoelectric cells.

In data set [2] the target is T1, dopamine receptors of the D-1 type (Bos taurus, UniProt Q95136).
T1 construct: homogenates of bovine retina; from tissue; host or cells: bovine retina homogenate
The experiment in a line: inhibition of the dopamine-induced stimulation of adenylate cyclase in homogenates of bovine retina. In kind it is biochemical. The settings on record: calculated from IC50 according to Cheng and Prusoff, read-out: pKi, adenylate cyclase functional test (converted). The text has this:
At concentrations of ca. 1 nmol/l to ca. […] the compounds according to the invention effect strong inhibition of the dopamine-induced stimulation of adenylate cyclase in homogenates of bovine retina [for the method see R. Markstein, Journal Neural. Transmission 51, 39-59 (1981)].
This activity also indicates the use of the compounds according to the invention in schizophrenia.

The subject of data set [3] is rat. In words: cataleptogenic activity (catalepsy). The format is in vivo. The conditions noted are these: rat, 1, 3.2 and 10 mg/kg p.o., observation period of 8 hours. As to the method:
Furthermore at doses of ca. 1 to ca. 10 mg/kg p.o., the compounds according to the invention effect no catalepsy of the rat. Cataleptogenic activity is assessed as described by G. Stille et al. in Arzneimittel Forschung 15, 841-843 (1965). The criterion for catalepsy is fulfilled when posture retention time is longer than 10 seconds. In view of the lack of cataleptogenic activity, the risk that the compounds according to the invention might cause extra-pyramidal side effects is improbable.

The mark [4] stands for this setting: Mus musculus, po, 0.5 h, read-out: ED50, apomorphine-induced rearing.
The mark [5] stands for this setting: Mus musculus, sc, 0.5 h, read-out: ED50, apomorphine-induced rearing.

T1 sequence (Q95136 whole entry): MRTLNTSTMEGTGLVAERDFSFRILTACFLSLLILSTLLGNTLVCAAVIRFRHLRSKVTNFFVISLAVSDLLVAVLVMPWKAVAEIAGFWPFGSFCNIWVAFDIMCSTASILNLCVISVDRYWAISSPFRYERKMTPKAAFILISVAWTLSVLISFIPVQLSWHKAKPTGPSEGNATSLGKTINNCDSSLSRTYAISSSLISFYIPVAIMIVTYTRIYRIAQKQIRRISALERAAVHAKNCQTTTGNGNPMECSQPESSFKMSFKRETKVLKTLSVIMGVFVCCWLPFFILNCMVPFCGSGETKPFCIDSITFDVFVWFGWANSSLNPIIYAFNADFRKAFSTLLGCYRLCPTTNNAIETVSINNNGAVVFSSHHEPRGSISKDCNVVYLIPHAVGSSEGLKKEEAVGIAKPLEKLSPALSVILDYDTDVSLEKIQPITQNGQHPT

In the case of `O=C(CCCN1CCC(O)(c2ccc(Cl)cc2)CC1)c1ccc(F)cc1` [Haloperidol, reference compound], the ED50 in the data set on mouse (setting [4]) came out at 0.03 mg/kg; with mouse (setting [5]), 0.008 mg/kg.

Usually inhibition stands for the relative decrease from the control value, in per cent. Consider `Cc1cc(Cl)ccc1N1CCN(C)[C@@H]2Cc3cccc(O)c3C[C@H]21` [Example 2, (-)-[4aR,10aR]-l,2,3,4,4a,5,10,10a-octahydro-4-(4'-chloro-2'-methyl-phenyl)-1-methyl-benzo[g]quinoxaline-6-ol], for which the ED50 in the data set with mouse (setting [4]) is 0.38 mg/kg; with mouse (Mus musculus, po, 1 h, read-out: E50, apomorphine-induced rearing after subchronic treatment) it was 0.28 mg/kg; with mouse (Mus musculus, po, 1 h, read-out: ED50, apomorphine-induced rearing) it was 0.14 mg/kg; in the data set with mouse (setting [5]) it was 0.033 mg/kg; in the data set with mouse (Mus musculus, sc, 1 h, read-out: ED50, apomorphine-induced rearing) it was 0.04 mg/kg. For the same compound, in the data set on rat [1] (Rattus norvegicus, po, read-out: inhibition of locomotor activity increase), the inhibition at 1 mg/kg came out at 76%. Moreover, the “inhibition of locomotor activity increase (in words)” value in the data set on rat [1] was “inhibits the locomotor activity increase more potently”. The Ki in data set [2] was 50.1 nM. Further, in the data set with rat [3], the catalepsy entry is on record as “fails to produce catalepsy”.

`CN1CCN(C2=Nc3cc(Cl)ccc3Nc3ccccc32)CC1` [Clozapine, reference compound]: the ED50 in the data set on mouse (po, 0.5 h, mouse, p.o., after 30 minutes, apomorphine 0.5 mg/kg s.c., read-out: ED50, apomorphine-induced rearing) was 4.3 mg/kg; in the data set on mouse (sc, 0.5 h, mouse, s.c., after 30 minutes, apomorphine 0.5 mg/kg s.c., read-out: ED50, apomorphine-induced rearing), 0.66 mg/kg. In addition, the “inhibition of locomotor activity increase (in words)” value in the data set on rat [1] is reported as “active”.

Consider `CN1CC[C@@H](c2ccccc2)[C@@H]2c3cccc4[nH]c(Cl)c(c34)C[C@H]21` (stereo in doubt) [phenylergoline, (+)-(5R)[5β, 9α, 10α]-2-chloro-6-methyl-9-phenylergoline, reference compound], for which the inhibition at 2 mg/kg with rat [1] (Rattus norvegicus, Rat2, po, read-out: inhibition of locomotor activity increase) was determined as 45%.
